The values below come from ChEMBL document CHEMBL1131194, “Covalent modification of cyclooxygenase-2 (COX-2) by 2-acetoxyphenyl alkyl sulfides, a new class of selective COX-2 inactivators” (J Med Chem, 1998).

In assay [1] the target is T1, Prostaglandin G/H synthase 1 (Ovis aries, UniProt P05979).
T1 sequence (P05979 whole entry): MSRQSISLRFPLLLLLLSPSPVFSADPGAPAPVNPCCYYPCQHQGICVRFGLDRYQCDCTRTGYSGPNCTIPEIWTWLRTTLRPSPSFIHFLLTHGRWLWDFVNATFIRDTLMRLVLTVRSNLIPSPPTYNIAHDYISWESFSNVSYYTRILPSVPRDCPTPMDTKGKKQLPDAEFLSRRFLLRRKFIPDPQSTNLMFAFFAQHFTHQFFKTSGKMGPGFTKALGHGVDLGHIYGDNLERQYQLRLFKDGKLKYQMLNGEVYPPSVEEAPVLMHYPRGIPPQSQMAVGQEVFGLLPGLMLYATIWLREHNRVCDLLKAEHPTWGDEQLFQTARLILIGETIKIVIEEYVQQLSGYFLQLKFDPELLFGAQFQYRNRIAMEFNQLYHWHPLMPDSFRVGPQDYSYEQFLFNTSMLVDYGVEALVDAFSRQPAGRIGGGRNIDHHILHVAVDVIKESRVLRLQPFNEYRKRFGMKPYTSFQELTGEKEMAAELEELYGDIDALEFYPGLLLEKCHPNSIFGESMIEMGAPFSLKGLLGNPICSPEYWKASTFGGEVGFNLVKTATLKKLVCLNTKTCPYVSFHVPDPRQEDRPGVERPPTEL
Briefly: Inhibitory concentration in DMSO with purified ovine Prostaglandin G/H synthase 1 (COX-1).

Assay [2] concerns the target T2, Prostaglandin G/H synthase 2 (Homo sapiens, UniProt P35354).
T2 sequence (P35354 whole entry): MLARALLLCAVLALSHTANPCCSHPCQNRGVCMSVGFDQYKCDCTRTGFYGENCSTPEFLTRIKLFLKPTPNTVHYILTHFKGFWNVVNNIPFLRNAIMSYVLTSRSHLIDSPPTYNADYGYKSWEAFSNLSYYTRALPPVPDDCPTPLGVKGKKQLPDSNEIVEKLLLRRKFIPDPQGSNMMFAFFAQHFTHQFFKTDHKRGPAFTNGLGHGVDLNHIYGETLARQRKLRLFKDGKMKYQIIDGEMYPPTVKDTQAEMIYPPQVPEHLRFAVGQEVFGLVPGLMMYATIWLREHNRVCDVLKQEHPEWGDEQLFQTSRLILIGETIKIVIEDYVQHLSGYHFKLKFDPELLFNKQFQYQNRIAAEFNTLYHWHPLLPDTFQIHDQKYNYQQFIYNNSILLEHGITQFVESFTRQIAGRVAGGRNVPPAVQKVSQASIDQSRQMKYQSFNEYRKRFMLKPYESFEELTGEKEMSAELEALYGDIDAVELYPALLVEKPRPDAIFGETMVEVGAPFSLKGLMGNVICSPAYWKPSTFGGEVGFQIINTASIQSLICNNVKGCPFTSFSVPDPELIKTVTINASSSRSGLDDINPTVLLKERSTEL
Description: Inhibitory concentration in DMSO with purified human Prostaglandin G/H synthase 2 (COX-2).

Usually IC50 stands for the concentration at which inhibition is half-maximal. Read a high IC50 as weaker potency in that assay. With `CC(=O)Oc1ccccc1SCCCOc1ccccc1`, the IC50 in assay [1] and in assay [2] was greater than 1000 µM each time.

Turning to `CC(=O)Oc1ccccc1SCCCCCC(=O)O`, the IC50 in assay [1] and in assay [2] was 50 µM each time.

In the case of `CCCCCCCCCSc1ccccc1OC(C)=O`, the IC50 in assay [1] and in assay [2] was greater than 40 µM in each case.

`CC(=O)Oc1ccccc1SCCCCCCBr`: the IC50 in assay [1] turned out to be 25 µM; in assay [2], 12 µM.

On to `CCCCCCC[Se]c1ccccc1OC(C)=O`, for which the IC50 in assay [1] and in assay [2] was 12 µM each time.

As for `CCCCCCCCSc1ccccc1OC(C)=O`, the IC50 in assay [1] and in assay [2] was greater than 40 µM throughout.

As for `CC(=O)OCCCCCSc1ccccc1OC(C)=O`, the IC50 in assay [1] and in assay [2] was 50 µM throughout.

`CCCC/C=C/CSc1ccccc1OC(C)=O`: in assay [1], it took 22 µM to reach half-maximal inhibition (IC50). That is a double-digit micromolar value.

Consider `CCCCCCC[S+]([O-])c1ccccc1OC(C)=O` (configuration not stated), for which the half-maximal inhibitory concentration (IC50) in assay [1] and in assay [2] was greater than 40 µM in each case.

In the case of `CCCCC#CC(C)Sc1ccccc1OC(C)=O` (configuration not stated), the IC50 stood at 15 µM in assay [1] and 7 µM in assay [2].

Compound `CSc1ccccc1OC(C)=O` yielded an IC50 in assay [1] greater than 5000 µM.

With `CC(=O)Oc1ccccc1SCCCCC#N`, the IC50 in assay [1] and in assay [2] was greater than 50 µM throughout.

On to `CC(=O)Oc1ccccc1SCCCCCO`, for which the IC50 in assay [1] and in assay [2] was greater than 50 µM throughout.

In the case of `CC(=O)Oc1ccccc1SC1CCCCCC1`, the IC50 in assay [1] and in assay [2] was greater than 40 µM in each case.

For the compound `CCCCCCCN(C)c1ccccc1OC(C)=O`, the IC50 in assay [1] and in assay [2] was greater than 40 µM each time.

Consider `CCCCCCCOc1ccccc1OC(C)=O`, for which the IC50 in assay [1] and in assay [2] was greater than 40 µM in each case.

For the compound `CCC(=O)Oc1ccccc1SC`, the IC50 in assay [1] and in assay [2] was greater than 1000 µM each time.

For the compound `CCCCSc1ccccc1OC(C)=O`, the IC50 in assay [1] is 40 µM.

In the case of `CC(=O)Oc1ccccc1SCCCCCCI`, the IC50 in assay [1] was 70 µM; in assay [2], 10 µM.

The compound `CCCCC#CCSc1ccccc1OC(C)=O` registered an IC50 in assay [1] of 17 µM.

For the compound `CCCOCCCSc1ccccc1OC(C)=O`, the IC50 in assay [1] and in assay [2] was greater than 50 µM each time.

`CC(=O)Oc1ccccc1SC1CCCCC1`: the IC50 in assay [1] and in assay [2] was greater than 40 µM throughout.

Regarding `CC#CCSc1ccccc1OC(C)=O`, 35 µM corresponded to half-maximal inhibition in assay [1] (IC50).

With `CCCCC#CCSc1ccccc1OC(=O)CC`, the IC50 in assay [1] and in assay [2] was greater than 40 µM each time.

In the case of `CC(=O)Oc1ccccc1SCCCCC(=O)O`, the IC50 in assay [1] and in assay [2] was greater than 50 µM throughout.

Compound `CC(=O)Oc1ccccc1SCc1ccccc1` had an IC50 in assay [1] greater than 400 µM.

For the compound `CCCCCCCCc1ccccc1OC(C)=O`, the IC50 in assay [1] and in assay [2] was greater than 40 µM in each case.

As for `CC(=O)Oc1ccccc1SCCc1ccccc1`, the IC50 in assay [1] was greater than 150 µM.

Turning to `CCCCC#CCOc1ccccc1OC(C)=O`, the IC50 in assay [1] and in assay [2] was greater than 40 µM throughout.

Take `CC(=O)Oc1ccccc1SCCCc1ccccc1`: the IC50 in assay [1] and in assay [2] was greater than 1000 µM in each case.

With `CC(=O)Oc1ccccc1SCCCCCBr`, the IC50 in assay [1] came to 34 µM; in assay [2] it was 9.5 µM.

Turning to `CCCCCCCS(=O)(=O)c1ccccc1OC(C)=O`, the IC50 in assay [1] and in assay [2] was greater than 40 µM in each case.
